Results reported in BindingDB's records for doi:10.1016/j.bmcl.2004.02.020 (Pfizer, 2004).

Target: T1, C-C chemokine receptor type 1 (Homo sapiens, UniProt P32246)
T1 sequence (P32246 whole entry): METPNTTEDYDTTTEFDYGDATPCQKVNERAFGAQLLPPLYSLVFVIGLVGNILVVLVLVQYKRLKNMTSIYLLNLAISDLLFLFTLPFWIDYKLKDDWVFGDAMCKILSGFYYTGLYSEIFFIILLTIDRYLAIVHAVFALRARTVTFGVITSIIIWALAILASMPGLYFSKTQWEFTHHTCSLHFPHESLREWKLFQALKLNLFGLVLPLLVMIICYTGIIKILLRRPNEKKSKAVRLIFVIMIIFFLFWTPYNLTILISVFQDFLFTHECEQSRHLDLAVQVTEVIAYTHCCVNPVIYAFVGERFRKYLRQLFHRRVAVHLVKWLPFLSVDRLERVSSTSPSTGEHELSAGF
Assay: Compound was tested for inhibition of CCL3 binding to chemokine receptor-1; inactive at a concentration of 32 uM

IC50, < 50 µM:
CNC(=O)CC[C@H](O)[C@H](CC1CCCCC1)NC(=O)c1cnc2ccccc2c1
CNC(=O)[C@@H](CC(C)C)C[C@@H](O)[C@H](CC1CCCCC1)NC(=O)c1cnc2ccccc2c1
CC[C@H](C)[C@H](NC(=O)c1cnc2ccccc2c1)[C@@H](O)C[C@@H](CC(C)C)C(=O)NC
CNC(=O)[C@H](CC(C)C)C[C@@H](O)[C@H](CC1CCCCC1)NC(=O)c1cnc2ccccc2c1
CNC(=O)[C@H](CC(C)C)C[C@@H](O)[C@@H](CC1CCCCC1)NC(=O)c1cnc2ccccc2c1
CNC(=O)[C@@H](CC(C)C)C[C@H](O)[C@@H](CC1CCCCC1)NC(=O)c1cnc2ccccc2c1
